Experimental data reported in patent US20140199760A1, “PLANTS HAVING ENHANCED ABIOTIC STRESS RESISTANCE” (UNIVERSITY OF TORONTO, priority 2011, published 2014).

Experiments:
[1] = test system: soybean (OAC Wallace cultivar); assay: Drought treatment of soybean with BRZ added to soil; water loss per final shoot dry weight; assay type: in vivo
Text: (§1) FIG. 2. (A) Soil water content of wild-type Columbia (red), era1-2 (green), and line cyp85a2 (blue) during a drought treatment. […] Error bars represent standard error (n=8). (B) Water loss during the first 9 days of drought treatment divided by the final shoot dry weight (SDW) in wild-type Columbia, era1-2, and line cyp85a2. Error bars represent standard error (n=6). (C) Cold stress treatment. […]
(§2) Soil (20:20:20), prepared that day, was consistently weighed into pots (typically 140 g) and covered with a plastic wrap (GLAD Press'n Seal® Wrap) that had been punctured with a small hole in the centre. […] This was typically done by withholding water for 9 days after which shoot biomass was harvested and fresh weight was determined. Shoots were then dried at 60 C for 3 days and dry weight was determined. […]
(§3) The observation that a deficiency in endogenous BL in cyp85a2 enables drought resistance to Arabidopsis prompted the hypothesis that a similar mechanism might exist in other plant species, such as corn, soybean, and canola. […] Immediately […] the start of the experiment, daily measurements of water use were monitored to quantify the rate of water loss. […]

canola (Westar cultivar) = assay: Drought treatment of canola with BRZ added to soil; water loss per final shoot dry weight; assay type: in vivo
corn (B73 cultivar) = assay: Drought treatment of corn with BRZ added to soil; water loss per final shoot dry weight; assay type: in vivo
Text: as §1, §2, §3

bean crop = conditions: applied brassinolide; cited from earlier work
[2] = 10 μM final concentration in soil, root uptake, 4 day drought, vs untreated controls

Row | SMILES | water use efficiency improved [1, 2] [%] | water loss per unit of shoot weight than that of the untreated controls ([1]; 10 μM final, drought, P<0.05) | water use efficiency improved (canola (Westar cultivar); [2]) [%] | water loss per unit of shoot weight than that of the untreated controls (canola (Westar cultivar); 10 μM final, drought, P<0.05) | water use efficiency improved (corn (B73 cultivar); 20 μM final concentration in soil, root uptake, 3.5 day drought, vs untreated controls) [%] | water loss per unit of shoot weight than that of the untreated controls (corn (B73 cultivar); 20 μM final, drought, P<0.05) | increase bean crop yield (bean crop)
1 | CC(O)(c1ccccc1)C(Cc1ccc(Cl)cc1)n1cncn1 (stereo not shown) [BRZ, Brassinazole] | 14 | significantly less | 15 | significantly less | 28 | significantly less | –
2 | CC(C)[C@H](C)[C@@H](O)[C@H](O)[C@@H](C)[C@H]1CC[C@H]2[C@@H]3COC(=O)[C@H]4C[C@H](O)[C@H](O)C[C@]4(C)[C@H]3CC[C@]12C [brassinolide, Brassinolide] | – | – | – | – | – | – | approximately 45%
